Measured values reported in ChEMBL document CHEMBL2074329, “Characterization of the transport of a cationic octapeptide, octreotide, in rat bile canalicular membrane: possible involvement of P-glycoprotein” (Biol Pharm Bull, 1998).
Bridge positions count the residues as written; N and C are the ends. Square brackets hold non-standard residues; d marks the D form. Peptide text beside a SMILES is read from it. * marks the point of attachment. Threoninol(2S,3R) = C[C@@H](O)[C@H](CO)N*

Biological target: Multidrug resistance protein 1a (Rattus norvegicus) (UniProt Q6PSM0)
Sequence (Q6PSM0 as listed by the source): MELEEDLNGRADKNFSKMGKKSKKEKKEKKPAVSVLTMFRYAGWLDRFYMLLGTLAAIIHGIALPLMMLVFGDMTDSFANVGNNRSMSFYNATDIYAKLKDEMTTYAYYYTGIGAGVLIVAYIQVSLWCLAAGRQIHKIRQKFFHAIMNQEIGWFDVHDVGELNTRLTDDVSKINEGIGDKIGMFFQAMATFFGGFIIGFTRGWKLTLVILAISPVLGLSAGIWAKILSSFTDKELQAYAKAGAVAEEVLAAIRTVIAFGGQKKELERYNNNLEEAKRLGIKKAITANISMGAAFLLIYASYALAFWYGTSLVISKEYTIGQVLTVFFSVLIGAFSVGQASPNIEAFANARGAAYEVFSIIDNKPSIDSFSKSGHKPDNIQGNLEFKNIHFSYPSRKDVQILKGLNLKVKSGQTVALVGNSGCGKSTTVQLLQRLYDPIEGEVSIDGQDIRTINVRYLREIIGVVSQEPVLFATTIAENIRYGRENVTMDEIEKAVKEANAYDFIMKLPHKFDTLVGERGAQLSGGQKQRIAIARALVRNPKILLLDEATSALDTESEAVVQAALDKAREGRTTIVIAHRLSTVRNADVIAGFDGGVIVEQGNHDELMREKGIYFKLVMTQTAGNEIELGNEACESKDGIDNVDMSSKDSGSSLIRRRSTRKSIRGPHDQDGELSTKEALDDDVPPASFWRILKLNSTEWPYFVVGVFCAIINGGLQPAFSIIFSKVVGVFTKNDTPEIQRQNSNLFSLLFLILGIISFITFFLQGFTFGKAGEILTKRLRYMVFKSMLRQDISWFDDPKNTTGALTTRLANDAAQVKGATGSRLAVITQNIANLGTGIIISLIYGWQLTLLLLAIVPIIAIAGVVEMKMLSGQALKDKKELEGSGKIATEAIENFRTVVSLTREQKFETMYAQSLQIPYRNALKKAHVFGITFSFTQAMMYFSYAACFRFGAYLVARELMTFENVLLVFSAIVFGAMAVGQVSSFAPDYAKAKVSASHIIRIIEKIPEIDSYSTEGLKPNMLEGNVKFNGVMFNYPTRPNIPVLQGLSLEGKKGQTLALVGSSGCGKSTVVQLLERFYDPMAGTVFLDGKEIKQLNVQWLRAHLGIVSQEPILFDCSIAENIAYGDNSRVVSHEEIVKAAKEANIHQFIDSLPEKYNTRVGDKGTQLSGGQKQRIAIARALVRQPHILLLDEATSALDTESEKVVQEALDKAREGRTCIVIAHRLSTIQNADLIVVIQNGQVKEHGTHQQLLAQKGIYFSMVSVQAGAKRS
Assay: TP_TRANSPORTER: uptake, inhibited by Verapamil, Vincristine and PSC833 in bile canalicular membrane vesicles from SD rat
Format: functional, cell membranes
Settings: Sprague-Dawley, Bile canalicular membrane vesicle

Question: `C[C@@H](O)[C@H](CO)NC(=O)[C@@H]1CSSC[C@H](NC(=O)[C@H](N)Cc2ccccc2)C(=O)N[C@@H](Cc2ccccc2)C(=O)N[C@H](Cc2c[nH]c3ccccc23)C(=O)N[C@@H](CCCCN)C(=O)N[C@@H]([C@@H](C)O)C(=O)N1` (H-[dF]CF[dW]KTC-{Threoninol(2S,3R)}; disulfide 2-7) was tested. Which Activity did it give?
Answer: substrate [+]
